Measurements as given in patent publication US12121027B2, “Herbicidal combinations” (UPL LTD, priority 2018, dated 2024).

Assays:
Chenopodium album = experiment: Herbicidal mixture trial, percentage weed control; assay type: in vivo; settings: Pinoxaden 46 g/ha, Metribuzin 280 g/ha, 2,4-D 500 g/ha
Procedure: (§1) Trials were carried out for evaluating the herbicidal mixtures of the invention on different weeds. The percentage control was calculated from the observed percent weed coverage data after 15 DAA and 30 DAA.

Phalaris minor = experiment: Herbicidal mixture trial, percentage weed control; assay type: in vivo; settings: Pinoxaden 46 g/ha, Metribuzin 280 g/ha, 2,4-D 500 g/ha
Procedure: as §1

[1] = 15 DAA, combination 64 g/ha + 725 g/ha + 280 g/ha
[2] = 30 DAA, combination 64 + 725 + 280

SMILES	percentage control, Actual (Chenopodium album; [1]) [%]	percentage control, Actual (Chenopodium album; [2]) [%]	percentage control, Actual (Phalaris minor; [1]) [%]	percentage control, Actual (Phalaris minor; [2]) [%]
O=C(O)COc1ccc(Cl)cc1Cl [2,4-D]	90.3	86	29	30.2
CSc1nnc(C(C)(C)C)c(=O)n1N [Metribuzin]	78	88	67.4	73.8
CCc1cc(C)cc(CC)c1-c1c(OC(=O)C(C)(C)C)n2n(c1=O)CCOCC2 [Pinoxaden, N 8-(2,6-diethyl-p-tolyl)-1,2,4,5-tetrahydro-7-oxo-7H-pyrazolo[1,2-d][1,4,5]oxadiazepin-9-yl 2,2-dimethylpropionate]	68	85.3	53.4	73.6
